Assay results published in patent US8093028B2, “Engineered glycosyltransferases with expanded substrate specificity” (Wisconsin Alumni Research Foundation, priority 2007, dated 2012).

Legend:
Format in all cases: biochemical
OleD P67T/S132F/A242V = target: T1, OleD P67T/S132F/A242V (Streptomyces antibioticus, UniProt Q53685, A242V/P67T/S132F); assay: Rate of glucoside formation with acceptors (RP-HPLC); conditions: for Rate of glucoside formation, P67T/S132F/A242V: 200 μM acceptor, 1 mM UDPG
T1 construct: made in house; host or cells: E. coli (site-directed mutant of pET28/OleD)
Protocol: Enzyme assays for the determination of glycosyl transfer rate to FIG. 1: 4, Table 1: 27-32 were carried out in a total volume of 500 μl 50 mM Tris-HCl (pH8.0) containing 5 mM MgCl2, 200 μM acceptor, 1 mM UDPG, and 50 μg pure enzyme. Aliquots (100 μl) were removed between 0 and 30 min, at which time product formation was still linear with respect to time, and quenched with 90 μl of an 8:1 mixture of ice-cold MeOH/HCl, and centrifuged at 14,000 rpm for 10 min. Supernatants were analyzed by analytical reverse-phase HPLC with a 250 mm×4.6 mm Gemini […] C18 column (Phenomenex, Torrance, Calif.) using a gradient of 10-90% CH3CN in 0.1% trifluoroacetic acid (TFA)/H2O in 20 min at 1 ml/min, with detection at 254 nm. HPLC peak areas were integrated, and the product concentration calculated as a percent of the total peak area. Product identity was confirmed by co-elution with a commercial standard when available and, in all cases, by LC-MS (FIG. 8). […]
Enzyme reactions were carried out in a total volume of 500 μl 50 mM Tris-HCl (pH8.0) containing 5 mM MgCl2, 200 μM acceptor, 1 mM UDPG, and 50 μg pure enzyme. Aliquots (100 μl) were removed between 0 and 30 min, and quenched with 90 μl of an 8:1 mixture of ice-cold MeOH/HCl for activity towards FIG. 1: 4, Table 1: 27-32, or with 90 μl of ice-cold MeOH for activity towards FIG. 1: 1, and the samples centrifuged at 14,000 rpm for 10 min.
For determination of activity to FIG. 1: 4, Table 1: 27-32, supernatants were analyzed by analytical reverse-phase HPLC with a Gemini 5μ C18 column (Phenomenex) using a gradient of 10-90% CH3CN in 0.1% trifluoroacetic acid (TFA)/H2O in 20 min, with detection at 254 nm. HPLC peak areas were integrated, and the product concentration calculated as a percent of the total peak area. All products were characterized by LC-MS. Mass spectra were obtained using electrospray ionization on an Agilent 1100 HPLC-MSD SL quadrapole mass spectrometer connected to a UV/Vis diode array detector. For LC-MS analysis, quenched reaction mixtures (see below) were analyzed by analytical reverse-phase HPLC with a 250 mm×4.6 mm Gemini 5μ C18 column (Phenomenex, Torrance, Calif.) using a gradient of 10-90% CH3CN in 0.1% formic acid/H2O in 20 min at 1 ml/min, with detection at 254 nm.
For determination of activity toward FIG. 1: 1, centrifuged reaction mixtures were analyzed by analytical reverse-phase HPLC with a Gemini 5μ C18 column (Phenomenex) using a gradient of 0-90% CH3CN in 50 mM NH3COOH over 30 min at 1 ml/min. Compounds FIG. 1: 1 and 3 were detected by evaporative light scattering detection (ELSD) using a drift tube temperature of 105° C. and a nitrogen flow of 2.5 ml/min. All products were characterized by APCI LC-MS on an Agilent 1100 Series LC/MSD quadrapole mass spectrometer connected to a UV detector. Quenched reaction mixtures were analyzed by reverse-phase HPLC with a 10 mm×4.6 mm Zorbax Extend 5μ C18 Analytical Guard Column (Agilent Technologies) using an isocratic gradient of 80% MeOH in 2 min at 1 ml/min, with detection at 254 nm.

OleD P67T = target: T2, OleD P67T (Streptomyces antibioticus, UniProt Q53685, P55A/P67T/R82V/R83E/T84P); assay: Specific activity with novobiocic acid or 4-Me-umb as acceptor and UDP-Glc; conditions: UDP-Glc donor
T2 construct: made in house; host or cells: E. coli (site-directed mutant of pET28/OleD)
Protocol: (§1) Determination of specific activity with 1 or 4 as acceptor. Enzyme reactions were carried out in a total volume of 100 μl/50 mM Tris-HCl (pH8.0) containing 5 mM MgCl2, 200 μM (FIG. 9: 1) or (FIG. 9: 4), 5 mM (FIG. 12: 5), and typically 10-50 μg pure enzyme. At a suitable time interval during which rate of product formation was linear with time (typically 2-20 min), reactions were quenched with 100 μl MeOH, and the samples centrifuged at 10,000 g for 10 min. Supernatants were analyzed by analytical reverse-phase HPLC with a Gemini 5μ C18 column (Phenomenex) using a gradient of 10-90% CH3CN in 0.1% trifluoroacetic acid (TFA)/H2O in 20 min, with detection at 254 nm. […] The identity of (FIG. 9: 7) was confirmed by LC-MS and NMR while the […] of glucoside (FIG. 9: 6) was confirmed by co-elution with a commercial standard and LC-MS analysis. HPLC peak areas were integrated, and the product concentrations calculated as a percent of the total peak area. Specific activity was expressed as nmols product formed/min/mg protein.

OleD G340W = target: T3, OleD G340W (Streptomyces antibioticus, UniProt Q53685, G340W/P55A/R82V/R83E/T84P); assay: as above; conditions: UDP-Glc donor
T3 construct: made in house; host or cells: E. coli (site-directed mutant of pET28/OleD)
Protocol: as §1

OleD A242V = target: T4, OleD A242V (Streptomyces antibioticus, UniProt Q53685, A242V/P55A/R82V/R83E/T84P); assay: as above; conditions: UDP-Glc donor
T4 construct: made in house; host or cells: E. coli BL21(DE3)pLysS (error-prone PCR clone in pET28a)
Protocol: as §1

OleD S132F = target: T5, OleD S132F (Streptomyces antibioticus, UniProt Q53685, P55A/R82V/R83E/S132F/T84P); assay: as above; conditions: UDP-Glc donor
T5 construct: made in house; host or cells: E. coli (site-directed mutant of pET28/OleD)
Protocol: as §1

OleD I112T = target: T6, OleD I112T (Streptomyces antibioticus, UniProt Q53685, I112T/P55A/R82V/R83E/T84P); assay: as above; conditions: UDP-Glc donor
T6 construct: made in house; host or cells: E. coli (site-directed mutant of pET28/OleD)
Protocol: as §1

Structure (SMILES) | Rate of glucoside formation, P67T/S132F/A242V (OleD P67T/S132F/A242V) | specific activity, fold higher than WT OleD (OleD P67T/S132F/A242V; 4 and 2 as acceptor/donor) [fold] | Fold-improvement compared to WT OleD (OleD P67T/S132F/A242V; rate of P67T/S132F/A242V versus WT, UDPG donor) [fold] | improvement in specific activity, P67T compared to WT OleD (OleD P67T) | specific activity, G340W compared to WT OleD (OleD G340W) | improvement in specific activity, A242V compared to WT OleD (OleD A242V) | improvement in specific activity, S132F compared to WT OleD (OleD S132F) | specific activity, I112T compared to WT OleD (OleD I112T)
Cc1cc(=O)oc2cc(O)ccc12 [4-Me-umb (4), 7-hydroxy-4-methylcoumarin] | 84 mmols/product formed/min/μg enzyme × 10^3 | ~30 | 33 | approximately 7 fold | approximately 0.5 fold | ~2.3 fold | ~2.6 fold | approximately 0.5 fold
CC(C)=CCc1cc(C(=O)Nc2c(O)c3ccc(O)c(C)c3oc2=O)ccc1O [novobiocic acid (29), novobiocic acid] | 1.14 mmols/product formed/min/μg enzyme × 10^3 | – | – | two-three fold | non-beneficial | two-three fold | two-three fold | 7.4 fold
